According to patent publication US12115152B2, “Pan-RAF kinase inhibitor and use thereof” (HEFEI INSTITUTES OF PHYSICAL SCIENCE, CHINESE ACADEMY OF …, priority 2019, dated 2024):

How the values were obtained:
Type in all cases: cell-based
[1] = Effect on proliferation of cells, Cell Titer-Glo, 72 hours; settings: Mus musculus, BaF3 cells
Experimental: The compounds of the present invention were tested for their effect on growth of cancer cells (Table 2), to further evaluate the compounds herein for their inhibitory effect on proliferation of cancer cells and their selectivity in inhibiting proliferation of cancer cells. […]
In the example, solutions of the test compound in DMSO at different concentrations (0.000508 μM, 0.00152 μM, 0.00457 μM, 0.0137 μM, 0.0411 μM, 0.123 μM, 0.370 μM, 1.11 μM, 3.33 μM, 10 μM) was added to the above cells respectively. The cells were incubated for 72 hours. The number of viable cells was detected with a Cell Titer-Glo (Promega, USA) Cell Viability Assay Kit by quantifying the ATP in viable cells. The values of GI50 (unit) of the compounds of the present invention against each of the test cells were determined.

[2] = test system: colorectal cancer cell COLO205 (expressing BRAF-V600E mutant kinase); assay: Effect on proliferation of cancer cells, Cell Titer-Glo, 72 hours; settings: Homo sapiens, COLO 205
Experimental: (§1) The compounds of the present invention were tested for their effect on growth of cancer cells (Table 2), to further evaluate the compounds herein for their inhibitory effect on proliferation of cancer cells and their selectivity in inhibiting proliferation of cancer cells.
(§2) The cells were incubated for 72 hours. The number of viable cells was detected with a Cell Titer-Glo (Promega, USA) Cell Viability Assay Kit by quantifying the ATP in viable cells. The values of GI50 (unit) of the compounds of the present invention against each of the test cells were determined.

[3] = test system: melanoma cell A375 (expressing BRAF-V600E mutant kinase); assay: as above; settings: Homo sapiens, A-375
Experimental: as §1, §2

[4] = test system: mouse BaF3-FL-BRAF-V600E (stably expressing full-length BRAF-V600E mutant kinase); assay: as above
Experimental: as §1, §2

| SMILES | GI50 [1] [nM] | GI50 [2] [nM] | GI50 [3] [nM] | GI50 [4] [nM] |
| --- | --- | --- | --- | --- |
| Cc1ccc(NC(=O)c2cccc(C(F)(F)F)c2)cc1-n1cc(-c2cncc(-c3cccnc3)c2)cn1 [Example 2, N-(3-(4-([3,3′-bipyridyl]-5-yl)-1H-pyrazol-1-yl)-4-methylphenyl)-3-(trifluoromethyl)benzamide] | 1700 | 48 | 36 |  |
| Cc1ccc(NC(=O)c2cccc(C(C)(C)C#N)c2)cc1-n1cc(-c2cncc(-c3cccnc3)c2)cn1 [Example 3, N-(3-(4-([3,3′-bipyridyl]-5-yl)-1H-pyrazol-1-yl)-4-methylphenyl)-3-(2-cyanoprop-2-yl)benzamide] | 1000 | 10 | 21 | < 0.3 |
| Cc1ccc(NC(=O)c2cccc(C(C)(C)C#N)c2)cc1-n1cc(-c2cncc(-c3ccncc3)c2)cn1 [Example 5, N-(3-(4-([3,4′-bipyridyl]-5-yl)-1H-pyrazol-1-yl)-4-methylphenyl)-3-(2-cyanoprop-2-yl)benzamide] | 510 | 17 | 19 | 1.9 |
| Cc1ccc(NC(=O)c2cccc(C(C)C#N)c2)cc1-n1cc(-c2cncc(-c3ccncc3)c2)cn1 (stereo not drawn) [Example 6, N-(3-(4-([3,4′-bipyridyl]-5-yl)-1H-pyrazol-1-yl)-4-methylphenyl)-3-(1-cyanoethyl)benzamide] | 780 | 53 | 57 | 7.5 |
| Cc1ccc(NC(=O)c2ccc(C)c(C(F)(F)F)c2)cc1-n1cc(-c2cncc(-c3ccncc3)c2)cn1 [Example 7, N-(3-(4-([3,4′-bipyridyl]-5-yl)-1H-pyrazol-1-yl)-4-methylphenyl)-4-methyl-3-(trifluoromethyl)benzamide] | 2400 | 150 | 86 | 12 |
| Cc1ccc(NC(=O)c2ccc(CN3CCN(C)CC3)c(C(F)(F)F)c2)cc1-n1cc(-c2cncc(-c3ccncc3)c2)cn1 [Example 8, N-(3-(4-([3,4′-bipyridyl]-5-yl)-1H-pyrazol-1-yl)-4-methylphenyl)-4-((4-methylpiperazin-1-yl)methyl)-3-(trifluoromethyl)benzamide] | 310 | 28 | 27 | 10 |
| Cc1ccc(NC(=O)c2ccc(CN3CCN(C)CC3)c(C(F)(F)F)c2)cc1-n1cc(-c2cncc(N3CCOCC3)c2)cn1 [Example 12, N-(4-methyl-3-(4-(5-morpholinopyrid-3-yl)-1H-pyrazol-1-yl)phenyl)-4-((4-methylpiperazin-1-yl)methyl)-3-(trifluoromethyl)benzamide] | 210 | 45 | 97 | 7.4 |
| Cc1ccc(NC(=O)c2cccc(C(F)(F)F)c2)cc1-n1cc(-c2cncc(-c3ccncc3)c2)cn1 [Example 13, N-(3-(4-([3,4′-bipyridyl]-5-yl)-1H-pyrazol-1-yl)-4-methylphenyl)-3-(trifluoromethyl)benzamide] | 1300 | 62 | 81 |  |
| Cc1ccc(NC(=O)c2cccc(C(C)(C)C#N)c2)cc1-n1cc(-c2cncc(-c3ccc(N4CCN(C)CC4)cc3)c2)cn1 [Example 30, N-(4-methyl-3-(4-(5-(4-(4-methylpiperazin-1-yl)phenyl)pyrid-3-yl)-1H-pyrazol-1-yl)phenyl)-3-(2-cyanoprop-2-yl)benzamide] |  | 52 | 47 | 10 |
| Cc1ccc(NC(=O)c2cccc(C(F)(F)F)c2)cc1-n1cc(-c2cncc(-c3ccc(N4CCN(C)CC4)cc3)c2)cn1 [Example 31, N-(4-methyl-3-(4-(5-(4-(4-methylpiperazin-1-yl)phenyl)pyrid-3-yl)-1H-pyrazol-1-yl)phenyl)-3-(trifluoromethyl)benzamide] |  | 98 | 100 |  |
| Cc1ccc(NC(=O)c2cccc(C(C)(C)C#N)c2)cc1-n1cc(-c2cncc(OCCCN3CCOCC3)c2)cn1 [Example 47, 3-(2-cyanoprop-2-yl)-N-(4-methyl-3-(4-(5-(3-morpholinopropoxy)pyrid-3-yl)-1H-pyrazol-1-yl)phenyl)benzamide] | 600 | 15 | 17 | 1.3 |
| Cc1ccc(NC(=O)c2cccc(C(C)(C)C#N)c2)cc1-n1cnc(-c2cncc(N3CCOCC3)c2)c1 [Example 109, 3-(2-cyanoprop-2-yl)-N-(4-methyl-3-(4-(5-morpholinopyrid-3-yl)-1H-imidazol-1-yl)phenyl)benzamide] | 3800 | 110 | 60 |  |
| Cc1cn(-c2cc(C(=O)Nc3ccc(C)c(-n4cc(-c5cnc6[nH]ccc6c5)cn4)c3)cc(C(F)(F)F)c2)cn1 [Example 167, N-(3-(4-(1H-pyrrolo[2,3-b]pyrid-5-yl)-1H-pyrazol-1-yl)-4-methylphenyl)-3-(4-methyl-1H-imidazol-1-yl)-5-(trifluoromethyl)benzamide] | 3900 | 670 | 330 |  |
| Cc1ccc(NC(=O)c2ccc(CN3CCN(C)CC3)c(C(F)(F)F)c2)cc1-n1cc(-c2cnc3[nH]ccc3c2)cn1 [Example 168, N-(3-(4-(1H-pyrrolo[2,3-b]pyrid-5-yl)-1H-pyrazol-1-yl)-4-methylphenyl)-4-((4-methylpiperazin-1-yl)methyl)-3-(trifluoromethyl)benzamide] | 3300 | 28 | 46 |  |
| Cc1ccc(NC(=O)c2cccc(C(F)(F)F)c2)cc1-n1cc(-c2cnc3[nH]ccc3c2)cn1 [Example 170, N-(3-(4-(1H-pyrrolo[2,3-b]pyrid-5-yl)-1H-pyrazol-1-yl)-4-methylphenyl)-3-(trifluoromethyl)benzamide] | 4800 | 280 | 270 |  |
| Cc1ccc(NC(=O)c2cccc(C(C)(C)C#N)c2)cc1-n1cc(-c2cnc3[nH]ccc3c2)cn1 [Example 171, N-(3-(4-(1H-pyrrolo[2,3-b]pyrid-5-yl)-1H-pyrazol-1-yl)-4-methylphenyl)-3-(2-cyanoprop-2-yl)benzamide] | 2600 | 360 | 110 |  |
| Cc1ccc(NC(=O)c2ccc(CN3CCN(C)CC3)c(C(F)(F)F)c2)cc1-n1cnc(-c2cnc3[nH]ccc3c2)c1 [Example 174, N-(3-(4-(1H-pyrrolo[2,3-b]pyrid-5-yl)-1H-imidazol-1-yl)-4-methylphenyl)-4-((4-methylpiperazin-1-yl)methyl)-3-(trifluoromethyl)benzamide] | 960 | 110 | 160 |  |
| Cc1ccc(NC(=O)c2ccc(C)c(C(F)(F)F)c2)cc1-n1cnc(-c2cnc3[nH]ccc3c2)c1 [Example 175, N-(3-(4-(1H-pyrrolo[2,3-b]pyrid-5-yl)-1H-imidazol-1-yl)-4-methylphenyl)-4-methyl-3-(trifluoromethyl)benzamide] | 1600 | 150 | 100 |  |
| Cc1ccc(NC(=O)c2cccc(C(C)(C)C#N)c2)cc1-n1cnc(-c2cnc3[nH]ccc3c2)c1 [Example 176, N-(3-(4-(1H-pyrrolo[2,3-b]pyrid-5-yl)-1H-imidazol-1-yl)-4-methylphenyl)-3-(2-cyanoprop-2-yl)benzamide] | 920 | 130 | 89 |  |
| Cc1ccc(NC(=O)c2cccc(C(F)(F)F)c2)cc1-n1cnc(-c2cnc3[nH]ccc3c2)c1 [Example 177, N-(3-(4-(1H-pyrrolo[2,3-b]pyrid-5-yl)-1H-imidazol-1-yl)-4-methylphenyl)-3-(trifluoromethyl)benzamide] | 2700 | 65 | 120 |  |
| Cc1ccc(NC(=O)c2cc(C(C)(C)C)on2)cc1-n1cnc(-c2cnc3[nH]ccc3c2)c1 [Example 178, N-(3-(4-(1H-pyrrolo[2,3-b]pyrid-5-yl)-1H-imidazol-1-yl)-4-methylphenyl)-5-(tert-butyl)isoxazole-3-carboxamide] | 3700 | 300 | 140 |  |
| Cc1ccc(NC(=O)c2cccc(C(C)C#N)c2)cc1-n1cc(-c2cnc3[nH]ccc3c2)cn1 (stereo not drawn) [Example 179, N-(3-(4-(1H-pyrrolo[2,3-b]pyrid-5-yl)-1H-pyrazol-1-yl)-4-methylphenyl)-3-(1-cyanoethyl)benzamide] | 3600 | 140 | 250 |  |
| Cc1ccc(NC(=O)c2ccc3cccnc3c2)cc1-n1cc(-c2cnc3[nH]ccc3c2)cn1 [Example 182, N-(3-(4-(1H-pyrrolo[2,3-b]pyrid-5-yl)-1H-pyrazol-1-yl)-4-methylphenyl)quinoline-7-carboxamide] | 2000 | 400 | 500 |  |
| Cc1ccc(NC(=O)c2cccc(-c3ccsc3)c2)cc1-n1cc(-c2cnc3[nH]ccc3c2)cn1 [Example 183, N-(3-(4-(1H-pyrrolo[2,3-b]pyrid-5-yl)-1H-pyrazol-1-yl)-4-methylphenyl)-3-(thien-3-yl)benzamide] | 3400 | 150 | 300 |  |
